According to patent US20220204495A1, “INHIBITING TRABID” (Valo Health, Inc., priority 2019, published 2022):

target: T1, TRABID(245-697) (Homo sapiens, UniProt Q9UGI0); test: TRABID inhibition biochemical assay (Ub-Rh110MP fluorescence); details: 10 nM TRABID(245-697), 25 nM Ub-Rh110MP, 30 minutes preincubation with compound, 10-point 3-fold series 26.6 μM to 1.35 nM
T1 construct: 10 nM TRABID(245-697) and 25 nM Ub-Rh110MP (UbiQ, UbiQ-126) final concentrations
T1 sequence (Q9UGI0 245-697): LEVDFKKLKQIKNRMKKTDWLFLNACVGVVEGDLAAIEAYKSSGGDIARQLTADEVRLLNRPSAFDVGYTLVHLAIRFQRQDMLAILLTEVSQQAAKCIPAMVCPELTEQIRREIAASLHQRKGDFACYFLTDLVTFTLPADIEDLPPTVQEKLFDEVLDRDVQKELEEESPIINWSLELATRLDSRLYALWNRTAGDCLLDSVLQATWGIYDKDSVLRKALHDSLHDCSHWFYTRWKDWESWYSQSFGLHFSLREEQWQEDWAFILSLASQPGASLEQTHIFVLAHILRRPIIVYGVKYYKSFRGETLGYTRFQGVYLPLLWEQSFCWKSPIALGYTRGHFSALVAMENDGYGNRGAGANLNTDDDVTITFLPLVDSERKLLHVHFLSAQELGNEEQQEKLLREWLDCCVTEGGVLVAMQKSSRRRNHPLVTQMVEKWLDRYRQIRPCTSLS
Protocol: TRABID enzymatic assays were performed in a final volume of 6 μL in buffer containing 20 mM Tris-HCl pH 8.0, (Corning 46-031-CM), and 1 mM GSH (Sigma, G4251), 0.03% BGG (Sigma, G7516), and 0.01% Triton X-100 (Sigma, 93443). Test compounds were serially diluted in DMSO (Sigma, G7516) to obtain 10-point, 3-fold series. Nanoliter quantities were pre-dispensed into 1536 assay plates (Corning, 9110BC) for the concentration response range, 26.6 μM to 1.35 nM. 3 μL of 2× enzyme was added to the assay plates, preincubated with compound for 30 minutes and then 3 μL of 2× substrate was added to initiate the reaction (10 nM TRABID(245-697) and 25 nM Ub-Rh110MP (UbiQ, UbiQ-126) final concentrations). Enzyme and substrate concentrations and incubation times were optimized for the maximal signal-to-background while maintaining linear initial velocity conditions at a fixed substrate concentration below Km.
Fluorescence signal was measured on an EnVision Plate Reader (PerkinElmer) equipped with 485 nm excitation filter and 535 nm emission filters.
Rates were calculated by: rate=((final FLU−initial FLU)/600 seconds) where final FLU=fluorescence at time 10 minutes, initial FLU=fluorescence at time 0 minutes and 600=duration of reaction in seconds.
Data were reported as percent inhibition compared with control wells based on the following equation: % inh=[…] where rate=measured rate of fluorescence generated during assay, AveLow=average rate of no enzyme control (n=32), and AveHigh=average rate of DMSO control (n=32).
IC50 values were determined by curve fitting of the standard 4 parameter logistic fitting algorithm included in the Activity Base software package (IDBS) using XE Designer equation Model 205. Data were fitted using the Levenburg Marquardt algorithm.

| Compound | IC50 [nM] |
| --- | --- |
| CN(C(=O)c1cnc(-c2ccccc2)s1)[C@H]1C[C@H](CNC#N)C1 (single isomer, unassigned) [Compound 20, N-methyl-2-phenyl-N-[(trans)-3-[(cyanoamino)methyl]cyclobutyl]-1,3-thiazole-5-carboxamide] | 2950 |
| N#CN[C@H]1C[C@]2(CCN(C(=O)c3cc(-c4ccccn4)no3)C2)C1 (single isomer, unassigned) [Compound 45, {[(2r,4s)-6-[3-(pyridin-2-yl)-1,2-oxazole-5-carbonyl]-6-azaspiro[3.4]octan-2-yl]amino}formonitrile] | 8100 |
| N#CNC[C@@H]1CCN(C(=O)c2csc(-c3ccccc3Oc3ccccc3)n2)C1 [Compound 1, cyano([[(3S)-1-[2-(2-phenoxyphenyl)-1,3-thiazole-4-carbonyl]pyrrolidin-3-yl]methyl])amine] | 140 |
| N#CNC[C@H]1CCN(C(=O)c2csc(-c3ccccc3Oc3ccccc3)n2)C1 [Compound 2, cyano([[(3R)-1-[2-(2-phenoxyphenyl)-1,3-thiazole-4-carbonyl]pyrrolidin-3-yl]methyl])amine] | 439 |
| COc1cccc(-c2ncc(NC(=O)CCCNC#N)s2)c1 [Compound 3, 4-(cyanoamino)-N-[2-(3-methoxyphenyl)-1,3-thiazol-5-yl]butanamide] | 743 |
| COc1cccc(-c2ncc(NC(=O)[C@H](C)CCNC#N)s2)c1 [Compound 4, (2R)-4-(cyanoamino)-N-[2-(3-methoxyphenyl)-1,3-thiazol-5-yl]-2-methylbutanamide] | 850 |
| COc1cccc(-c2ncc(C(=O)NCCCNC#N)s2)c1 [Compound 5, N-[3-(cyanoamino)propyl]-2-(3-methoxyphenyl)-1,3-thiazole-5-carboxamide] | 872 |
| COc1cccc(-c2ncc(NC(=O)[C@@H](C)CCNC#N)s2)c1 [Compound 6, (2S)-4-(cyanoamino)-N-[2-(3-methoxyphenyl)-1,3-thiazol-5-yl]-2-methylbutanamide] | 951 |
| N#CNC1C[C@@]12CCN(C(=O)c1csc(-c3ccc(Cl)cc3Cl)n1)C2 (some centres unmarked) [Compound 7] | 1060 |
| Cn1cc(-c2ccc(-c3cc(NC(=O)CCCNC#N)on3)cc2)cn1 [Compound 8, 4-(cyanoamino)-N-[3-[4-(1-methylpyrazol-4-yl)phenyl]-1,2-oxazol-5-yl]butanamide] | 1060 |
| N#CNCCCC(=O)Nc1cnc(-c2ccccc2Oc2ccccc2)s1 [Compound 9, 4-(cyanoamino)-N-[2-(2-phenoxyphenyl)-1,3-thiazol-5-yl]butanamide] | 1130 |
| COc1ccccc1-c1ncc(NC(=O)CCCNC#N)s1 [Compound 10, 4-(cyanoamino)-N-[2-(2-methoxyphenyl)-1,3-thiazol-5-yl]butanamide] | 1160 |
| N#CNC[C@H]1CCN(C(=O)c2csc(-c3ccc(Cl)cc3Cl)n2)C1 [Compound 11] | 1160 |
| COc1ccccc1-c1nc(C(=O)N2CC[C@@H](CNC#N)C2)cs1 [Compound 12, cyano([[(3S)-1-[2-(2-methoxyphenyl)-1,3-thiazole-4-carbonyl]pyrrolidin-3-yl]methyl])amine] | 1250 |
| Cn1cc(-c2ccc(-c3cc(C(=O)N4CCC5(CC(NC#N)C5)C4)on3)cc2)cn1 (centres unmarked) [Compound 13, [(6-[3-[4-(1-methyl-1H-pyrazol-4-yl)phenyl]-1,2-oxazole-5-carbonyl]-6-azaspiro[3.4]octan-2-yl)amino]formonitrile] | 1260 |
| COc1ccccc1-c1nc(C(=O)N2CC[C@H](CNC#N)C2)cs1 [Compound 14, cyano([[(3R)-1-[2-(2-methoxyphenyl)-1,3-thiazole-4-carbonyl]pyrrolidin-3-yl]methyl])amine] | 1280 |
| Cn1cc(-c2ccc(-c3cc(NC(=O)CCNC#N)on3)cc2)cn1 [Compound 15, 3-(cyanoamino)-N-[3-[4-(1-methylpyrazol-4-yl)phenyl]-1,2-oxazol-5-yl]propanamide] | 1390 |
| N#CNC[C@H]1C[C@H](NC(=O)c2cnc(-c3ccccc3)s2)C1 [Compound 16, 2-phenyl-N-[(trans)-3-[(cyanoamino)methyl]cyclobutyl]-1,3-thiazole-5-carboxamide] | 1580 |
| N#CNCC12CC1CN(C(=O)c1csc(-c3ccc(Cl)cc3Cl)n1)C2 (centres unmarked) [Compound 17] | 1600 |

| Compound | IC50 [nM] |
| --- | --- |
| C[C@H](CNC#N)C(=O)Nc1cc(-c2ccc(-c3cnn(C)c3)cc2)no1 [Compound 18, (2R)-3-(cyanoamino)-2-methyl-N-[3-[4-(1-methylpyrazol-4-yl)phenyl]-1,2-oxazol-5-yl]propanamide] | 1660 |
| C[C@@H](CNC#N)C(=O)Nc1cc(-c2ccc(-c3cnn(C)c3)cc2)no1 [Compound 19, (2S)-3-(cyanoamino)-2-methyl-N-[3-[4-(1-methylpyrazol-4-yl)phenyl]-1,2-oxazol-5-yl]propanamide] | 2590 |
| COc1cccc(-c2cc(C(=O)N3CC4CC4(CNC#N)C3)on2)c1 (centres unmarked) [Compound 22] | 3400 |
| N#CNC[C@H]1CN(C(=O)c2csc(-c3ccc(Cl)cc3Cl)n2)CCO1 [Compound 24, Cyano({[(2S)-4-[2-(2,4-dichlorophenyl)-1,3-thiazole-4-carbonyl]morpholin-2-yl]methyl})amine] | 4000 |
| N#CN[C@H]1[C@@H]2CN(C(=O)c3nc(-c4ccccc4)cs3)C[C@@H]21 [Compound 25] | 4410 |
| N#CN[C@H]1[C@@H]2CN(C(=O)c3csc(-c4ccc(Cl)cc4Cl)n3)C[C@@H]21 [Compound 26] | 4530 |
| N#CNCC1CN(C(=O)c2csc(-c3ccc(Cl)cc3Cl)n2)C1 [Compound 29] | 5160 |
| COc1ccc(-c2cc(C(=O)N3CC4CC4(CNC#N)C3)on2)cc1 (centres unmarked) [Compound 31] | 5210 |
| N#CNC[C@@H]1CCCN(C(=O)c2csc(-c3ccc(Cl)cc3Cl)n2)C1 [Compound 32] | 5270 |
| COc1ccc(-c2cc(C(=O)N3CC[C@@]4(CC4NC#N)C3)on2)cc1 (some centres unmarked) [Compound 34] | 5660 |
| N#CNC1C[C@@]12CCN(C(=O)c1nc(-c3ccccc3)cs1)C2 (some centres unmarked) [Compound 36] | 6510 |
| COc1cccc(-c2cc(C(=O)N3CC[C@@]4(CC4NC#N)C3)on2)c1 (some centres unmarked) [Compound 38] | 520 |
| N#CNC[C@H]1CCCN1C(=O)c1csc(-c2ccc(Cl)cc2Cl)n1 [Compound 39] | 6620 |
| N#CN[C@H]1CC[C@@H](NC(=O)c2cccc(Oc3ccccc3)c2)C1 [Compound 40] | 7290 |
| COc1ccc(-c2cc(C(=O)N(C)CCCNC#N)on2)cc1 [Compound 41] | 7750 |
| COc1cccc(-c2ncc(NC(=O)[C@H](C)CNC#N)s2)c1 [Compound 43, (2R)-3-(cyanoamino)-N-[2-(3-methoxyphenyl)-1,3-thiazol-5-yl]-2-methylpropanamide] | 7880 |
| N#CNC1CC2(CCN(C(=O)c3csc(-c4ccc(Cl)cc4Cl)n3)CC2)C1 [Compound 44] | 8000 |
| N#CNC[C@H]1CCN(C(=O)c2nc(-c3ccccc3)cs2)C1 [Compound 46] | 8470 |
| CN(CCCNC#N)C(=O)c1nc(-c2ccccc2)cs1 [Compound 48] | 8740 |
